Measurements from patent US20240270748A1 (Merck Patent GmbH, priority 2021, published 2024).

What was measured:
YAP-TEAD interaction = assay: SK-HEP-1 reporter assay (8xTEAD responsive elements driving NanoLuc luciferase); format: cell-based; conditions: Homo sapiens, SK-HEP1, SK-HEP-1 reporter assay
Method in brief: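 Reporter read-out: NanoLuc luminescence from 8×TEAD elements stably integrated in SK-HEP-1 cells, after 24 h compound exposure at 37° C. Ten concentrations tested in duplicate, top 30 μM final, 0.3% DMSO; IC50 from curve.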

NCI-H226 cells = assay: Viability assay in NCI-H226 (Yap-dependent) cells, CyQuant; format: cell-based, human; conditions: Homo sapiens, NCI-H226, 96 h, class symbols
Method in brief: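 Seeded cells were dosed 24 h later in duplicate (10-point, 1:3 dilutions, top 30 μM final, 0.3% DMSO) and incubated 96 h at 37 °C. Viability was read with CyQUANT DNA dye after 1 h, fluorescence bottom read. NCI-H226 in RPMI 1640 medium; SW620 YAP/TAZ CRISPR knockout in DMEM/F-12 medium.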

SW620 Yap KO cells = assay: Viability assay in SW620 Yap KO (Yap independent) cells, CyQuant; format: cell-based; conditions: Homo sapiens, SW-620, 96 h
Method: Viability Assay in NCI-H226 (Yap-Dependent) and SW620 Yap KO (Yap Independent) Cells
The ability of YAP-TEAD inhibitors to inhibit tumor cell growth was evaluated using two different cell lines: NCI-H226, which is a YAP dependent cell line, and SW620 cells, where YAP and TAZ were knocked out using CRISPR to generate a YAP independent cell line.
For the assay, cells were treated in duplicates with the test compounds in a 10-point dose, 1:3 dilution steps, with the top concentration starting at 30 μM (final concentration in assay). After a 96 hour incubation at 37° C., 95% rH, and 5% CO2, a cell-permeant DNA-binding dye that stains only healthy cells (CyQUANT®, Promega) was added to the cells, allowing the quantification of cell viability.
Cell Media: The NCI-H226 cells were cultured in the following media: RPMI 1640, +10% FBS, +1× GlutaMAX, +10 mM HEPES, +0.5% Pen/Strep. The SW620-KO cells were cultured in the following media: DMEM/F-12, +10% FBS, +1× GlutaMAX, +10 mM HEPES, +0.5% Pen/Strep.
Reagents: The reagents used are listed below:
Cell culture: The cells were examined using an inverted microscope to check for health, cell density, etc. To dissociate adherent cells, the monolayer of cells was washed once with pre-warmed PBS. After removing the PBS, 3 ml pre-warmed Accutase was added to a F75 flask, dispersed evenly and the flask was allowed to sit in incubator for ˜4-5 minutes.
When a single cell suspension was obtained, 7 ml of prewarmed growth media was added and resuspended with the cells. The cell suspension was transferred to a sterile 15 ml conical centrifuge tube, and spun for 5 min at 300×g, RT. The supernatant was discarded and the pellet was resuspended in 10 ml of pre-warmed growth media.
The total cell count was determined, and 20 μl of the desired cell number was added to each well of a 384 well plate using a Multidrop Combi. The plates were then incubated for 24 hours at 37° C., 95% rH, and 5% CO2.
Compound treatment: 24 hours after seeding, the cells were treated with compounds.
A 1:333 dilution of compounds, diluted in DMSO, was made to get a final concentration of 0.3% DMSO per well. To transfer the compounds to the assay plate, […] was shot from Labcyte low dead volume plates to the cell plates containing 20 μl media/well with the ECHO 555 liquid handling system.
After treatment, the cells were fed with 20 μl fresh pre-warmed assay media using a Multidrop combi.
The assay plates were then incubated for 96 h at 37° C., 95% rH, and 5% CO2.
96 h after treatment 30 μl of CyQuant® reagent was added to the assay plates using a Multidrop combi in the dark. The plates were then incubated for 1 hour at 37° C., 95% rH and 5% CO2. Thereafter, the assay plates were removed from the incubator and allowed to equilibrate to RT for 30 min in the dark without lid. Finally, they were measured using an EnVision microplate reader with a FITC bottom read program.

[1] = n.d. = value not detectable below threshold given in parentheses, ND = not determinable within the entire range
[2] = n.d. = value not detectable below threshold given in parentheses

Structure (SMILES) | IC50 (YAP-TEAD interaction; class symbols) [nM] | IC50 (NCI-H226 cells) [nM] | IC50 (SW620 Yap KO cells; [1]) [nM] | IC50 (YAP-TEAD interaction; [2]) [nM] | IC50 (SW620 Yap KO cells; [2]) [nM] | IC50 (SW620 Yap KO cells; class symbols) [nM] | IC50 (YAP-TEAD interaction; [1]) [nM]
Cc1snc2c1c1cc(C(=O)N=S(C)(=O)CCO)ccc1n2-c1ccc(C(F)(F)F)cc1 (stereo not drawn) [Example C30, N-[(2-hydroxyethyl)(methyl)oxo-¿6-sulfanylidene]-3-methyl-8-[4-(trifluoromethyl)phenyl]-8H-[1,2]thiazolo[3,4-b]indole-5-carboxamide] | 10 to 100 | 1 to 100 | > 3000 |  |  |  | 
Cn1cc2c3cc(C4CC(Oc5cncnc5)=NO4)ccc3n(-c3ccc(C(F)(F)F)cc3)c2n1 (stereo not drawn) [Example C50, 5-[(5-{2-methyl-8-[4-(trifluoromethyl)phenyl]-2H,8H-pyrazolo[3,4-b]indol-5-yl}-4,5-dihydro-1,2-oxazol-3-yl)oxy]pyrimidine] | 100 to 10000 | 100 to 1000 | > 30000 |  |  |  | 
Cc1snc2c1c1cc(C(N)=O)ccc1n2-c1ccc(C(F)(F)F)cc1 [Example C120, 3-methyl-8-[4-(trifluoromethyl)phenyl]-8H-[1,2]thiazolo[3,4-b]indole-5-carboxamide] | 10 to 100 | 1 to 100 | > 30000 |  |  |  | 
Cn1cc2c3cc(C(=O)N[C@@H](CO)c4ccccn4)ccc3n(-c3ccc(C(F)(F)F)cn3)c2n1 [Example C150, N-[(1R)-2-hydroxy-1-(pyridin-2-yl)ethyl]-2-methyl-8-[5-(trifluoromethyl)pyridin-2-yl]-2H,8H-pyrazolo[3,4-b]indole-5-carboxamide] | 10 to 100 | 1 to 100 |  |  |  | 10000 to 30000 | 
C[C@@H](CO)C(=O)Nc1ccc2c(c1)c1cn(C)nc1n2-c1ccc(C(F)(F)F)cc1 [Example C153, (2S)-3-hydroxy-2-methyl-N-{2-methyl-8-[4-(trifluoromethyl)phenyl]-2H,8H-pyrazolo[3,4-b]indol-5-yl}propanamide] | 10 to 100 | 1 to 100 | > 30000 |  |  |  | 
Cc1snc2c1c1cc(C(=O)N=S(C)(=O)CCO)ccc1n2-c1ccc(C(F)(F)F)cc1 (single isomer, unassigned) [Example C101] | 10 to 100 | 1 to 100 | > 3200 |  |  |  | 
Cn1cc2c3cc(C(=O)N=[S@@](=O)(CCCO)Cc4cccnc4)ccc3n(-c3ccc(C(F)(F)F)cc3)c2n1 (single isomer, unassigned) [Example C199] |  | 100 to 1000 |  | > 95 | > 3000 |  | 
Cn1cc2c3cc(S(=O)(=O)NCCO)ccc3n(-c3ccc(C(F)(F)F)cc3)c2n1 [Example C57, N-(2-hydroxyethyl)-2-methyl-8-[4-(trifluoromethyl)phenyl]-2H,8H-pyrazolo[3,4-b]indole-5-sulfonamide] | 10 to 100 | 1000 to 10000 | > 30000 |  |  |  | 
C[C@H](CO)NC(=O)c1ccc2c(c1)c1cn(C)nc1n2-c1ccc(C(F)(F)F)cn1 [Example C148, N-[(2R)-1-hydroxypropan-2-yl]-2-methyl-8-[5-(trifluoromethyl)pyridin-2-yl]-2H,8H-pyrazolo[3,4-b]indole-5-carboxamide] | 10 to 100 | 1 to 100 | > 30000 |  |  |  | 
CNC(=O)c1ccc2c(c1)c1cn(C)nc1n2-c1ccc(C(F)(F)F)c(F)c1 [Example C166, 8-[3-fluoro-4-(trifluoromethyl)phenyl]-N,2-dimethyl-2H,8H-pyrazolo[3,4-b]indole-5-carboxamide] | 10 to 100 | 1 to 100 |  |  | > 3200 |  | 
[2H]C1([2H])C(n2c3ccc(C(=O)N[C@@H](CO)c4ccccn4)cc3c3cn(C)nc32)C([2H])([2H])C([2H])([2H])C([2H])([2H])C1([2H])[2H] [Example C196, 8-[(2,2,3,3,4,4,5,5,6,6-^2H10)cyclohexyl]-N-[(1R)-2-hydroxy-1-(pyridin-2-yl)ethyl]-2-methyl-2H,8H-pyrazolo[3,4-b]indole-5-carboxamide] | 100 to 10000 | 100 to 1000 |  |  | > 30000 |  | 
Cn1cc2c3nc(C(=O)N=S(C)(C)=O)ccc3n(-c3ccc(C(F)(F)F)cc3)c2n1 [Example C108, N-[dimethyl(oxo)-λ^6-sulfanylidene]-4-methyl-7-[4-(trifluoromethyl)phenyl]-4,5,7,12-tetraazatricyclo [6.4.0.0^∧{^2,6}]dodeca-1(8),2,5,9,11-pentaene-11-carboxamide] |  | 100 to 1000 | > 30000 |  |  |  | > 30000

Next, values leading:

IC50 (YAP-TEAD interaction; class symbols) [nM] | IC50 (NCI-H226 cells) [nM] | IC50 (SW620 Yap KO cells; [1]) [nM] | IC50 (YAP-TEAD interaction; [2]) [nM] | IC50 (SW620 Yap KO cells; [2]) [nM] | IC50 (SW620 Yap KO cells; class symbols) [nM] | IC50 (YAP-TEAD interaction; [1]) [nM] | Structure (SMILES)
10 to 100 | 1 to 100 | > 30000 |  |  |  |  | Cc1snc2c1c1cc(C(=O)NC[C@H](C)O)ccc1n2-c1ccc(C(F)(F)F)cc1 [Example C94, N-[(2S)-2-hydroxypropyl]-3-methyl-8-[4-(trifluoromethyl)phenyl]-8H-[1,2]thiazolo[3,4-b]indole-5-carboxamide]
10 to 100 | 1 to 100 | > 3000 |  |  |  |  | Cn1nc2c3cc(C(=O)N=[S@](=O)(CCO)Cc4ccccn4)ccc3n(-c3ccc(C(F)(F)F)cc3)c2n1 (single isomer, unassigned) [Example C161]
 | 1 to 100 |  | > 9500 | > 3000 |  |  | Cn1cc2c3cc(C(=O)N=[S@](=O)(CCO)Cc4ccccn4)ccc3n(-c3ccc(C(F)(F)F)cc3)c2n1 (single isomer, unassigned) [Example C175]
10 to 100 | 1 to 100 | > 3200 |  |  |  |  | Cc1snc2c1c1cc(C(=O)NCCO)ccc1n2-c1ccc(C(F)(F)F)cc1 [Example C65, N-(2-hydroxyethyl)-3-methyl-8-[4-(trifluoromethyl)phenyl]-8H-[1,2]thiazolo[3,4-b]indole-5-carboxamide]
100 to 10000 | 1 to 100 |  |  | > 30000 |  |  | C[C@@H](NC(=O)c1ccc2c(c1)c1cn(C)nc1n2-c1ccc(C(F)(F)F)cc1)c1ccc(N)nc1 [Example C257, N-[(1R)-1-(6-aminopyridin-3-yl)ethyl]-2-methyl-8-[4-(trifluoromethyl)phenyl]-2H,8H-pyrazolo[3,4-b]indole-5-carboxamide]
10 to 100 | 1 to 100 | > 30000 |  |  |  |  | Cn1nc2c3cc(C(=O)NCc4ccccc4)ccc3n(-c3ccc(C(F)(F)F)cc3)c2n1 [Example C134, N-benzyl-2-methyl-4-[4-(trifluoromethyl)phenyl]-2H,4H-[1,2,3]triazolo[4,5-b]indole-7-carboxamide]
 | 1 to 100 |  | > 9500 | > 3000 |  |  | Cn1cc2c3cc(C(=O)N=S(=O)(CCO)Cc4ccncc4)ccc3n(-c3ccc(C(F)(F)F)cc3)c2n1 (stereo not drawn) [Example C216, N-[(2-hydroxyethyl)(oxo)[(pyridin-4-yl)methyl]-λ^6-sulfanylidene]-2-methyl-8-[4-(trifluoromethyl)phenyl]-2H,8H-pyrazolo[3,4-b]indole-5-carboxamide]
 | 1 to 100 |  | > 3000 | > 3000 |  |  | Cn1nc2c3cc(C(=O)N=[S@@](=O)(CCCO)Cc4ccccn4)ccc3n(-c3ccc(C(F)(F)F)cc3)c2n1 (single isomer, unassigned) [Example C237]
10 to 100 | 100 to 1000 |  |  | > 3000 |  |  | Cn1nc2c3cc(C(=O)N[C@H](CCO)c4ccccn4)ccc3n(-c3ccc(C(F)(F)F)cc3)c2n1 (single isomer, unassigned) [Example C241]
10 to 100 | 1 to 100 |  |  | > 3000 |  |  | C[C@H](NC(=O)c1ccc2c(c1)c1nn(C)nc1n2-c1ccc(C(F)(F)F)cc1)c1ccncc1 [Example C185, 2-methyl-N-[(1S)-1-(pyridin-4-yl)ethyl]-4-[4-(trifluoromethyl)phenyl]-2H,4H-[1,2,3]triazolo[4,5-b]indole-7-carboxamide]
